Like-named read-outs stand apart in the source and are kept apart here. Ends that are not written are not given here.
Experiments:
[1] = test system: Glutamate metabatropic receptor; type: cell-based
[2] = test system: NIH 3T3 cells; experiment: Amplification response in the absence of the indicated target receptor; type: cell-based, mouse; details: absence of the ligand's target receptor
Procedure: FIG. 16 illustrates the maximal ligand-induced responses of the indicated receptors, as assayed using cotransfected cultures using a Multiple Receptor Format similar to that described in FIG. 11. […] Cells were incubated in wells of a 96 well plate for 4 days with each ligand. Maximal responses were calculated by fitting the data to a model of a single mass-action site.

[3] = biological target: T1, m2 muscarinic receptor (Homo sapiens, UniProt P08172); experiment: cell-based; type: cell-based
T1 construct: expressed in transfected cells; host or cells: NIH 3T3 (mouse fibroblasts)
T1 sequence (P08172 1-466): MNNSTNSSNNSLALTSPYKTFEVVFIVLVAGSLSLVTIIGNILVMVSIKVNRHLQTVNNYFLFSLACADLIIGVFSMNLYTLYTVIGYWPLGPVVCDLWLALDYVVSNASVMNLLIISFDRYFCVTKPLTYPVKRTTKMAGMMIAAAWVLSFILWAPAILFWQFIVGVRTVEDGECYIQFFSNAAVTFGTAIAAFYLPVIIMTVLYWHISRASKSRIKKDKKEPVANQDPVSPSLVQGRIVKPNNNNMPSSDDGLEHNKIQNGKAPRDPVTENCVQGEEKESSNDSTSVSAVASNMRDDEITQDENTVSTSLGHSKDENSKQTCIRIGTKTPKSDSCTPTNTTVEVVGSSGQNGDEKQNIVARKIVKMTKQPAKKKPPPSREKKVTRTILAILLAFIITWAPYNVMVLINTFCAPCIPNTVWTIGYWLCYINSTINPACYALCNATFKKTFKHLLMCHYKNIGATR

[4] = biological target: T2, m1 muscarinic receptor (Homo sapiens, UniProt P11229); experiment: cell-based; type: cell-based; design: expressed in transfected cells; host or cells: NIH 3T3 (mouse fibroblasts); details: for Emax: read-out: % Max
T2 sequence (P11229 1-460): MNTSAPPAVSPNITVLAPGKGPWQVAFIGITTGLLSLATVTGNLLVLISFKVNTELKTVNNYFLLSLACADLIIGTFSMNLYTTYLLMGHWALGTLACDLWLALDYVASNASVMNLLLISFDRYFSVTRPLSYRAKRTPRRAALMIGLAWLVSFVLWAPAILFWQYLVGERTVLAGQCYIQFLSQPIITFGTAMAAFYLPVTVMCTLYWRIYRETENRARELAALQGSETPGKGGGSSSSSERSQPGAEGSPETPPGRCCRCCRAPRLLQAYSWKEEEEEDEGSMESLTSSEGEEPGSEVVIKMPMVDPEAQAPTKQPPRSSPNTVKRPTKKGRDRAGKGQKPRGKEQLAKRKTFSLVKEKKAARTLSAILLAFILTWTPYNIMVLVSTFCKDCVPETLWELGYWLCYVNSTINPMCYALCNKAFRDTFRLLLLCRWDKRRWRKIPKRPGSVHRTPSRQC

[5] = biological target: T3, alpha 2 C2 adrenergic receptor (Homo sapiens, UniProt P18089); type: cell-based
T3 sequence (P18089 1-450): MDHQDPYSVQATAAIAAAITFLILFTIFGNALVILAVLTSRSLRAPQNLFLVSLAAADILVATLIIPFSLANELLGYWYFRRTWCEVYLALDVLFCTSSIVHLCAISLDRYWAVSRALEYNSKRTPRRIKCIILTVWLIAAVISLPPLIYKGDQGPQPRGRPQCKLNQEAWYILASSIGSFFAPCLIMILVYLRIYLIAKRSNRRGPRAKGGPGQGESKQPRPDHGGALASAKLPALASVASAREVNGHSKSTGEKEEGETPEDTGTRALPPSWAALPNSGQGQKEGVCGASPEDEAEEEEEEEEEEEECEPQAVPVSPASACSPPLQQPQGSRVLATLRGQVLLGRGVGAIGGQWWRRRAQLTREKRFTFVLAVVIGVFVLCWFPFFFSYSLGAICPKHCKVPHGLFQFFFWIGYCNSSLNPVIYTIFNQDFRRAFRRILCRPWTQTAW

[6] = biological target: T4, alpha 2 C4 adrenergic receptor (Homo sapiens, UniProt P18825); type: cell-based; details: α2-C4, Table 3; for Max Response: relative to other ligands at the receptor
T4 construct: expressed in transfected cells; host or cells: NIH 3T3 (mouse fibroblasts)
T4 sequence (P18825 1-462): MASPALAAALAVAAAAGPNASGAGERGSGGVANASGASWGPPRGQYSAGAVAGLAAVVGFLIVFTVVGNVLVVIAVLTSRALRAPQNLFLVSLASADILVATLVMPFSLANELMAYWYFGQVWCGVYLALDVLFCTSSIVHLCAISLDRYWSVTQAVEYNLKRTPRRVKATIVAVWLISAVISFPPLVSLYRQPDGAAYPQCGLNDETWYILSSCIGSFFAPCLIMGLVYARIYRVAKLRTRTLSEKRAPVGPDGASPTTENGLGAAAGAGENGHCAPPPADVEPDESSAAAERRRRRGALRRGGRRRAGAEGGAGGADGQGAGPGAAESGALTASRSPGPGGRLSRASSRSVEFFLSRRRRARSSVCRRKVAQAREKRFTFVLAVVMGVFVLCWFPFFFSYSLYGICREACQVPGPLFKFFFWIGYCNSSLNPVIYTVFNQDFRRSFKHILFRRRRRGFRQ

[7] = biological target: T5, m4 muscarinic receptor (Homo sapiens, UniProt P08173)
T5 sequence (P08173 1-479): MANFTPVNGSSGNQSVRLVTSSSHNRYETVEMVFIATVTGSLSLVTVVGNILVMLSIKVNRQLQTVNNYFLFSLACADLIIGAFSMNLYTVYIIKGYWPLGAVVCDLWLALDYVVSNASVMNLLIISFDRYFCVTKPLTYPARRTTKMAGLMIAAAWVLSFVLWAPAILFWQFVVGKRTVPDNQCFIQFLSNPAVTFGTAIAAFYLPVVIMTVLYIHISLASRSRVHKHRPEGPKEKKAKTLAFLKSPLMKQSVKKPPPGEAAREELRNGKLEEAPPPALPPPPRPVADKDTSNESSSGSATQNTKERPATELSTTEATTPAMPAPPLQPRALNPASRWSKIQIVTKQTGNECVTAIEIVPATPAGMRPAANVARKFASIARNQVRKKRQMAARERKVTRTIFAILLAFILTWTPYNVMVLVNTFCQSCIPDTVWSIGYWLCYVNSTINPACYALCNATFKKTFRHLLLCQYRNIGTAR

[8] = biological target: T6, m5 muscarinic receptor (Homo sapiens, UniProt P08912); type: cell-based; details: for Emax: read-out: % Max
T6 construct: expressed in transfected cells; host or cells: NIH 3T3 (mouse fibroblasts)
T6 sequence (P08912 1-532): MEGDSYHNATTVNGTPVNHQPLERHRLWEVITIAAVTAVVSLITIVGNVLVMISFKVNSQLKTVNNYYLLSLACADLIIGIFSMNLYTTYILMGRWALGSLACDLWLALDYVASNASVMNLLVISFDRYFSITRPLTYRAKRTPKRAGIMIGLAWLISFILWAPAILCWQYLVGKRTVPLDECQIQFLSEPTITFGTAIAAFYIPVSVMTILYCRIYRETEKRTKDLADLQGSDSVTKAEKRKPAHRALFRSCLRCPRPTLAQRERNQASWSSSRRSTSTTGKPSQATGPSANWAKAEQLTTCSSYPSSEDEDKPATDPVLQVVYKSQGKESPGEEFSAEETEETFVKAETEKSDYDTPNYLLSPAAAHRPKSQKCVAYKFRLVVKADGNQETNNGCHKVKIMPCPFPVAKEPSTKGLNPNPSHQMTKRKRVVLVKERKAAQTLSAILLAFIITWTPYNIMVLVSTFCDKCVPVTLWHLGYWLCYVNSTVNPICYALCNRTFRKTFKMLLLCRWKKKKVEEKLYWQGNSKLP

[9] = biological target: T5, m4 muscarinic receptor; experiment: cell-based; details: read-out: % Max
[10] = biological target: T7, m3 muscarinic receptor (Homo sapiens, UniProt P20309); experiment: cell-based; design: expressed in transfected cells; host or cells: NIH 3T3 (mouse fibroblasts); details: for Emax: read-out: % Max
T7 sequence (P20309 whole entry): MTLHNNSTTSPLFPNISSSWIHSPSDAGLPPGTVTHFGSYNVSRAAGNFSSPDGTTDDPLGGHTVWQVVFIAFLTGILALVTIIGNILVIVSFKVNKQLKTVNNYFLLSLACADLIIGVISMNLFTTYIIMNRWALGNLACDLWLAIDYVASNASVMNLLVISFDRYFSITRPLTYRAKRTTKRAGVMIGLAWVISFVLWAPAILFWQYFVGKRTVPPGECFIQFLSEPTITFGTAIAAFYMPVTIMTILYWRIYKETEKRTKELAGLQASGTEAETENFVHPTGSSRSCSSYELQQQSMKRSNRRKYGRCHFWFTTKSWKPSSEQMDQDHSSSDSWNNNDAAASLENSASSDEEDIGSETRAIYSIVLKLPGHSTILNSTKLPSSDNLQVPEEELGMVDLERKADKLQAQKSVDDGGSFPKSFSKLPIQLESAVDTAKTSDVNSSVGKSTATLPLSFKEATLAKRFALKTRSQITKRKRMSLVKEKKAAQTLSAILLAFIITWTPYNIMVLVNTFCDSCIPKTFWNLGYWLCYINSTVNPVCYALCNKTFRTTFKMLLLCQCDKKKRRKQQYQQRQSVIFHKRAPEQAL

[11] = biological target: T2, m1 muscarinic receptor; experiment: cell-based
[12] = biological target: T7, m3 muscarinic receptor; experiment: cell-based
[13] = biological target: T6, m5 muscarinic receptor; type: cell-based; details: read-out: negative log Ki (converted)
[14] = biological target: T5, m4 muscarinic receptor; experiment: cell-based
[15] = biological target: T8, alpha 2 C10 adrenergic receptor (Homo sapiens, UniProt P08913); type: cell-based; details: α2-C10, Table 3
T8 construct: expressed in transfected cells; host or cells: NIH 3T3 (mouse fibroblasts)
T8 sequence (P08913 1-465): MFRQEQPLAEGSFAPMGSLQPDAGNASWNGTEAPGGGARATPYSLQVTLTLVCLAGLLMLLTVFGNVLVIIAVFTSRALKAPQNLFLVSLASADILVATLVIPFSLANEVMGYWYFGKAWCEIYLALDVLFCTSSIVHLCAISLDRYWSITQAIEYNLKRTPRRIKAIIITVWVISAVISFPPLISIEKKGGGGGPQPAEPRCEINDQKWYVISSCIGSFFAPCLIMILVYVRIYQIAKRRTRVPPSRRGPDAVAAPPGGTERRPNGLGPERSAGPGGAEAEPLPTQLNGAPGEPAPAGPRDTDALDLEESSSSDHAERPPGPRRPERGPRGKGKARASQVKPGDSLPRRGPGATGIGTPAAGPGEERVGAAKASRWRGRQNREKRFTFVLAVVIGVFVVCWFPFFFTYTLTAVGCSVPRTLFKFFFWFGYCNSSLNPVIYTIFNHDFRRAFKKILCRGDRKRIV

[16] = test system: trk A receptors (NGF receptor); details: only when transfected with trk A; cited from earlier work
[17] = test system: trk C receptor; details: data not shown
[18] = biological target: Insulin receptor; type: cell-based

N[C@@H](Cn1oc(=O)[nH]c1=O)C(=O)O [Quisqualate]
EC50 ([1]; Table 2, read-out: Ligand EC50): 2400 nM | Rmax ([1]; relative to other clones): +

substance P (RPKPQQFFGLM; ends and bridges not checked; UniProt P20366 58-68, looked up)
induction of responses [2]: unable to induce responses

C[N+](C)(C)CC#CCOC(=O)Nc1cccc(Cl)c1 [McN A-434]
EC50 ([3]; m2 + Gq-i5, Table 1A, read-out: EC50): 1500 ± 600 nM | % Max ([3]; nih 3t3 cells): 108 ± 7% | EC50 ([4]; m1, Table 1A, read-out: EC50): 1100 ± 200 nM | % Max ([4]; nih 3t3 cells): 43 ± 2%

Cc1cccc([C@H](C)c2cnc[nH]2)c1C [Dexmedetomidine]
EC50 [5]: 2 nM

CNC[C@H](O)c1ccc(O)c(O)c1 [Epinephrine]
Max Response [6]: +

O=C1CCCN1CC#CCN1CCCC1 [oxotremorine]
EC50 [7]: 33 ± 14 nM | EC50 ([7]; read-out: Ligand EC50): 33 ± 14 nM | EC50 ([8]; m5, Table 1A, read-out: EC50): 55 ± 1 nM | EC50 ([8]; m5, Table 2, read-out: Ligand EC50): 55 ± 1 nM | Emax [8]: 74 ± 2% | Emax ([3]; read-out: % Max): 100 ± 5% | EC50 ([3]; read-out: EC50): 19 ± 10 nM | EC50 ([3]; read-out: Ligand EC50): 19 ± 10 nM | Emax [4]: 75 ± 10% | EC50 ([4]; read-out: EC50): 390 ± 130 nM | EC50 ([4]; read-out: Ligand EC50): 390 ± 130 nM | Emax [9]: 102 ± 3% | Emax [10]: 66 ± 5% | EC50 ([10]; read-out: EC50): 210 ± 60 nM | EC50 ([10]; read-out: Ligand EC50): 210 ± 60 nM

Cc1cc(C(C)(C)C)c(O)c(C)c1CC1=NCCN1 [Oxymetazoline]
Max Response [6]: +

COc1ccccc1CNCCCCCCNCCCCCCCCNCCCCCCNCc1ccccc1OC [methocrtramine]
Ki [11]: 501 nM | Ki [12]: > 1000 nM | Ki [13]: > 1000 nM | Ki [14]: 398 nM

CCN1CCc2nc(N)oc2CC1 [BHT 933]
EC50 ([5]; α2-C2, Table 3): > 10000 nM | EC50 [15]: > 10000 nM

COc1nc(C)nc(Cl)c1N=C1NCCN1 [Moxonidine]
Max Response [6]: +

Clc1cc(I)cc(Cl)c1NC1=NCCN1 [p-I-Clonidine]
Max Response [5]: +

C1COC(NC(C2CC2)C2CC2)=N1 [Rilmenidine]
Max Response [6]: +

C[C@@H]1O[C@H](C[N+](C)(C)C)C[C@H]1O [muscarine]
Emax [8]: 86% | Emax [4]: 84 ± 4% | Emax [9]: 69 ± 2% | Emax [10]: 84 ± 6%

CNC[C@H](O)c1cccc(O)c1 [phenylephrine]
induction of responses [2]: unable to induce responses

Nc1cc(Cl)c(NC2=NCCN2)c(Cl)c1 [p-NH2-Clonidine]
Max Response ([5]; α2-C2, Table 3, relative to other ligands at the receptor): +

C=CCN1CCc2nc(N)sc2CC1 [BHT 920]
EC50 [15]: > 10000 nM | EC50 [6]: > 10000 nM

C[N+]1(C)CCC(OC(=O)C(c2ccccc2)c2ccccc2)CC1 [4-DAMP]
Ki [11]: 2.51 nM | Ki [13]: 1 nM

Nerve growth factor [NGF]
growth stimulation [16]: stimulates growth | induction of amplification responses [17]: not able to induce amplification responses

O=C(O)CCC/C=C\C[C@@H]1[C@@H](/C=C/[C@@H](O)COc2cccc(C(F)(F)F)c2)[C@H](O)C[C@@H]1O (racemic) [Fluprostenol]
induction of responses [2]: unable to induce responses

Brc1c(NC2=NCCN2)ccc2nccnc12 [UK 14,304]
Max Response [6]: +

Insulin
EC50 ([18]; Table 2, read-out: Ligand EC50): 0.08 ± 0.08 nM | Rmax ([18]; relative to other clones): +

endothelin-3 [ET-3]
induction of responses [2]: unable to induce responses

Source: patent publication US5707798A, “Identification of ligands by selective amplification of cells transfected with receptors” (priority 1994, dated 1998)
